Measured values reported in ChEMBL document CHEMBL1201862, “PubChem BioAssay data set” (2004).
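48-hour exposure; five concentrations; linearly interpolated endpoints. Here, GI50 denotes the concentration required for 50% inhibition of growth.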 The source made the active and inactive calls. Rule as the data show it: active = GI50 up to about 1.1 µM and inactive = higher.

Assays:
Experiment in all cases: NCI-60 cell line screen, 48 h
DLD-1 = system: DLD-1
DMS-114 = system: DMS-114
LXFL 529 = system: LXFL 529
M19-MEL = system: M19-MEL
RXF 631 = system: RXF 631
SNB-78 = system: SNB-78
XF498 = system: XF498
DMS-273 = system: DMS-273
BT-549 = system: BT-549

## CC1=C(C(=O)Nc2ccccc2C)C(c2ccc(Cl)cc2)C(C(=O)Nc2ccccc2C)=C(C)N1
DLD-1
  GI50: > 100 µM (inactive)
DMS-114
  GI50: > 100 µM (inactive)
LXFL 529
  GI50: > 100 µM (inactive)
M19-MEL
  GI50: > 100 µM (inactive)
RXF 631
  GI50: > 100 µM (inactive)
SNB-78
  GI50: > 100 µM (inactive)
XF498
  GI50: 81.3 µM (inactive)

## CC(C)(C)[C@H]1CO[C@]2(C)[C@@H]3C[C@@H]3C(=O)N12
DLD-1
  GI50: > 100 µM (inactive)
DMS-114
  GI50: > 100 µM (inactive)
DMS-273
  GI50: > 100 µM (inactive)
M19-MEL
  GI50: > 100 µM (inactive)
RXF 631
  GI50: > 100 µM (inactive)
SNB-78
  GI50: > 100 µM (inactive)
XF498
  GI50: > 100 µM (inactive)

## COc1nc(C#CC2(O)CCCCC2)nc(OC)n1
BT-549
  GI50: 14.5 µM (inactive)

## O=C1Nc2ccc([N+](=O)[O-])cc2/C1=N/NC(=S)Nc1ccccc1
BT-549
  GI50: 3.88 µM (inactive)

## COC(=O)c1c(C#C[Si](C)(C)C)c(C#C[Si](C)(C)C)c(C#C[Si](C)(C)C)c(C#C[Si](C)(C)C)c1C(=O)OC
BT-549
  GI50: > 100 µM (inactive)

## Cc1ccc(C(=O)Nc2ccc(CP(=O)(O)O)cc2)cc1NC(=O)c1cccc(NC(=O)Nc2cccc(C(=O)Nc3cc(C(=O)Nc4ccc(CP(=O)(O)O)cc4)ccc3C)c2)c1
BT-549
  GI50: > 100 µM (inactive)

## O=C1[C@H]2C(c3ccccc3)=NN(C(=O)c3ccccc3)[C@H]2C(=O)N1c1ccccc1
DLD-1
  GI50: > 100 µM (inactive)
DMS-114
  GI50: > 100 µM (inactive)
DMS-273
  GI50: > 100 µM (inactive)

## COc1cc(C2c3cccc4cccc(c34)C3CCC(=O)N32)cc(OC)c1O (stereo not given)
BT-549
  GI50: > 50 µM (inactive)

## C=CCC1(CN(C)C)CC/C(=C\c2cc(OC)c(OC)c(OC)c2)C1=O (stereo not given)
DLD-1
  GI50: 20 µM (inactive)
DMS-114
  GI50: 18.6 µM (inactive)
DMS-273
  GI50: > 10 µM (inactive)
LXFL 529
  GI50: 17.9 µM (inactive)
M19-MEL
  GI50: 37.1 µM (inactive)
RXF 631
  GI50: 25.6 µM (inactive)
SNB-78
  GI50: 28.1 µM (inactive)

## COc1cc(S(=O)(=O)Nc2ccc(-c3csc(N4C(=O)C(Cl)C4c4cccs4)n3)cc2)ccc1Cl (stereo not given)
BT-549
  GI50: 87.7 µM (inactive)

## CC1(C)OCC([C@H]2O[C@@H](CC(=S)NCCCCCCCCCCCCNC(=S)C[C@H]3O[C@@H](C4COC(C)(C)O4)[C@H]4OC(C)(C)O[C@H]43)[C@H]3OC(C)(C)O[C@H]32)O1 (stereo not given in full)
BT-549
  GI50: 35 µM (inactive)

## O=c1c(Cc2ccccc2)c(O)cc2n1CCC2
DLD-1
  GI50: > 100 µM (inactive)
DMS-114
  GI50: > 100 µM (inactive)
LXFL 529
  GI50: > 100 µM (inactive)
M19-MEL
  GI50: > 100 µM (inactive)
RXF 631
  GI50: > 100 µM (inactive)
SNB-78
  GI50: > 100 µM (inactive)
XF498
  GI50: > 100 µM (inactive)

## Nc1ccc(/N=N/c2ccccc2)cc1
BT-549
  GI50: 65.6 µM (inactive)

## COc1ccc(N2C(=O)C3c4[nH]c5ccccc5c4C4CC(C)CC(C)C4C3C2=O)cc1 (stereo not given)
DLD-1
  GI50: > 100 µM (inactive)
DMS-114
  GI50: > 100 µM (inactive)
DMS-273
  GI50: > 100 µM (inactive)
LXFL 529
  GI50: > 100 µM (inactive)
M19-MEL
  GI50: > 100 µM (inactive)
SNB-78
  GI50: > 100 µM (inactive)
XF498
  GI50: > 100 µM (inactive)

## O=S1(=O)C[C@H](O)[C@H](O)CS1
DLD-1
  GI50: > 100 µM (inactive)
DMS-114
  GI50: > 100 µM (inactive)
DMS-273
  GI50: > 100 µM (inactive)
LXFL 529
  GI50: > 100 µM (inactive)
M19-MEL
  GI50: > 100 µM (inactive)
SNB-78
  GI50: > 100 µM (inactive)
XF498
  GI50: > 100 µM (inactive)

## BrC(Br)([P+](c1ccccc1)(c1ccccc1)c1ccccc1)[P+](c1ccccc1)(c1ccccc1)c1ccccc1
DLD-1
  GI50: 15.9 µM (inactive)
DMS-114
  GI50: 13.4 µM (inactive)
DMS-273
  GI50: 14.6 µM (inactive)
LXFL 529
  GI50: 15.2 µM (inactive)
M19-MEL
  GI50: 13.3 µM (inactive)
SNB-78
  GI50: 19.7 µM (inactive)

## Cc1nc2c(nc1C)-c1c(c3c(n1Cc1ccccc1)C(=O)CCC3)C(=O)C2=O
BT-549
  GI50: 2.86 µM (inactive)

## CC[P+]1(c2ccccc2)CCCCC1
DLD-1
  GI50: > 100 µM (inactive)
DMS-114
  GI50: > 100 µM (inactive)
DMS-273
  GI50: > 100 µM (inactive)
LXFL 529
  GI50: > 100 µM (inactive)
M19-MEL
  GI50: > 100 µM (inactive)
RXF 631
  GI50: > 100 µM (inactive)
SNB-78
  GI50: > 100 µM (inactive)

## CCCCCCCCCCC[N+]1(Cc2ccccc2)CC2CCN(Cc3ccccc3)CC2C1 (stereo not given)
BT-549
  GI50: 0.305 µM (active)

## Cn1c(-c2cccs2)cc(-c2ccsc2)c1-c1cccs1
BT-549
  GI50: > 100 µM (inactive)

## Cn1ccnc1SC(F)(F)c1nc2ccccc2o1
BT-549
  GI50: 46.5 µM (inactive)

## Cn1c(S)nc(C(N)=O)c1N
BT-549
  GI50: > 100 µM (inactive)

## CC(=O)C(CN(CC(C)C)CC(C)C)C(c1ccccc1)c1c(O)c2ccccc2oc1=O (stereo not given)
DLD-1
  GI50: > 100 µM (inactive)
DMS-114
  GI50: > 100 µM (inactive)
LXFL 529
  GI50: > 100 µM (inactive)
M19-MEL
  GI50: > 100 µM (inactive)
RXF 631
  GI50: > 100 µM (inactive)

## O=C1CCCCC1C(O)(C(F)(F)F)C(F)(F)Cl (stereo not given)
BT-549
  GI50: > 10 µM (inactive)

## O=CN/C=C\c1cc(O)ccc1O
DLD-1
  GI50: 14.6 µM (inactive)
DMS-114
  GI50: 14.5 µM (inactive)
DMS-273
  GI50: 7.11 µM (inactive)
LXFL 529
  GI50: 10.8 µM (inactive)
M19-MEL
  GI50: 11.8 µM (inactive)
SNB-78
  GI50: 70 µM (inactive)
XF498
  GI50: 15.4 µM (inactive)

## NC(=O)NNc1nc2ccccc2c(=O)n1NC(=O)C(=O)Nc1ccc(Cl)cc1Cl
BT-549
  GI50: > 100 µM (inactive)
